# Measurements: patent US20240207421A1, “NERVE TARGETING PEPTIDES AND METHODS OF USE” (ALUME BIOSCIENCES, INC., priority 2020, published 2024)
# System: Laminin 421/521
# Assay: Phage display library screening (Example 2), NEB laminin-binding peptides
# Set-up: species or system human
# Details: Laminin 421/521, not 211 and 411; combined unique sequence count, Python/R script analysis
# Method: Phage display library screens were used to identify peptides that bind to target proteins (including specific laminin trimers) that are expressed in human nerves, as described in Table 3. These screens were also carried out to identify peptides that could bind selectively to nerves versus muscle. Such peptides could therefore be useful for systemic in-vivo labeling of nerves during fluorescence assisted surgery. Specifically, m 13 phage libraries expressing 7 or 12 random amino acid peptides, or a cyclic peptide CX7C, on the N-terminus of the minor coat protein pIII (New England Biolabs; NEB) were processed through multiple rounds of selection for binding to target proteins expressed in nerves, or to excised human nerves, nerve extracts, or muscle, as described further below.
# For screening against the specified target proteins in Table 1, including LN211, LN411, LN421, and LN521, the phage library was processed by up to 4 binding and wash cycles. For selection, phage libraries were incubated for up to 24 hours at 4° C. in 96 well plates that had been coated with one of the target proteins. Plates were then washed with PBS and phage were eluted using 0.2M glycine pH 2.0. Phage supernatants where then neutralized with Tris pH 9.0 prior to plating on TGI bacteria and LB agar plates. Colonies were counted to determine titer followed by DNA preparation of pools of phage and NextGen sequencing. After rounds of selection, phage were pooled and amplified for iterative selection. Phage that were bound at each round were sequenced. NextGen sequencing of pools after 2, 3 and 4 rounds of selection was used to isolate candidate sequences that were analyzed further to identify those that specifically bound each unique target protein.
# For all NEB sequence datasets, a python script was used to translate, trim, and filter the peptide sequences (see details above). A python script was used to group peptides from different assays according to laminin complex binding (laminin complex 211, 411, 421, or 521) and combine the unique sequence counts for each peptide. An R script was written to merge the peptide sequences from different data files and determine peptides that specifically bind one laminin complex and not the others, or that bind both laminin 421 and 521 but not 211 and 411.
row,Substance,Count
1,LGSSRSPSSFLG (Laminin 421/521-binding peptide),29
2,DIMKSPRSNLRS (Laminin 421/521-binding peptide),37
3,LGHQNGGRADMW (Laminin 421/521-binding peptide),35
4,AWNGNRS (Laminin 421/521-binding peptide),47
5,KQELSDNLASHR (Laminin 421/521-binding peptide),50
6,AVVSQNQMSQQK (Laminin 421/521-binding peptide),64
7,WQWRSTELGYRY (Laminin 421/521-binding peptide),36
8,CTAWTRQEC (Laminin 421/521-binding peptide),31
9,CNSWKAAKC (Laminin 421/521-binding peptide),29
10,WTKHNTPAHHLS (Laminin 421/521-binding peptide),89
11,NGHEVQSRAANR (Laminin 421/521-binding peptide),29
12,SLNTTWVSPMMK (Laminin 421/521-binding peptide),37
13,GQPRNIHLPGTH (Laminin 421/521-binding peptide),40
14,TVARSTAQERSI (Laminin 421/521-binding peptide),28
15,CGITQTTTC (Laminin 421/521-binding peptide),55
16,CSSQAKRSC (Laminin 421/521-binding peptide),31
17,WAYTDYM (Laminin 421/521-binding peptide),35
18,CWSGNSRSC (Laminin 421/521-binding peptide),42
19,TLKAGTRANDGV (Laminin 421/521-binding peptide),32
20,SLPYAASLNSVE (Laminin 421/521-binding peptide),28
21,LGPSTQGAGQTR (Laminin 421/521-binding peptide),38
22,WPMMQTR (Laminin 421/521-binding peptide),29

row,Substance,Count
1,ALGGEPRKAYQR (Laminin 421/521-binding peptide),45
2,GIVPSRHTTGLG (Laminin 421/521-binding peptide),28
3,QGWEFQVPARHS (Laminin 421/521-binding peptide),30
4,QTLQTRH (Laminin 421/521-binding peptide),44
5,GSTTHPHFGLPG (Laminin 421/521-binding peptide),40
6,DVIHSSRGAYFE (Laminin 421/521-binding peptide),36
7,VPVFLDQARVMK (Laminin 421/521-binding peptide),53
8,EYWHQRGSWFHR (Laminin 421/521-binding peptide),55
9,CTGETLLTC (Laminin 421/521-binding peptide),28
10,QTFGYSMFNVRT (Laminin 421/521-binding peptide),30
11,HSTYAPG (Laminin 421/521-binding peptide),33
12,ASHSRPLMNYAP (Laminin 421/521-binding peptide),49
13,CKSPAIKGC (Laminin 421/521-binding peptide),29
14,DRLTPITWDWSR (Laminin 421/521-binding peptide),86
15,YTPRNQL (Laminin 421/521-binding peptide),55
16,AWVEAQNASNPS (Laminin 421/521-binding peptide),160
17,VPQIRIK (Laminin 421/521-binding peptide),47
18,APKVTNARPTQL (Laminin 421/521-binding peptide),147
19,GPKNHHQ (Laminin 421/521-binding peptide),51
20,WGWNGANMSPRG (Laminin 421/521-binding peptide),31
21,RLVTASMVSPSF (Laminin 421/521-binding peptide),95
22,MTNSGAK (Laminin 421/521-binding peptide),35
